Measurements reported in patent US9023789B2, “Amylin analogs and pharmaceutical compositions thereof” (Novo Nordisk A/S, priority 2012, dated 2015).
In brackets after ≈: the same amount, converted by molar mass. Read-outs that look alike come from different tables or passages of the source. Numbered stars: 1 amine (or outer) side, 2 acyl side, 3 side chain; on linkers, the order of the positions; unused ones are H or OH. Bridge positions count the residues as written; N and C are the ends. Side chains are listed from the residue outwards. Peptide text beside a SMILES is read from it. * marks the point of attachment. C20 diacid = O=C(O)CCCCCCCCCCCCCCCCCCC(=O)*; γGlu = O=C(O)[C@H](CCC(=O)[*:2])N[*:1]

Tests used:
[1] = ASSAY (IV) determination of solubility; assay type: physicochemical
Outline: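 Solubility measured by UPLC of supernatant after centrifugation, following 18 h at room temperature. Peptide ([…] in water) was diluted 1:1 into 100 mM glycylglycine (pH 3.0, 4.0, 5.0) or bistrispropane (pH 6.0-8.0).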

rat calcitonin receptor = target: T1, rat calcitonin receptor (Rattus norvegicus, UniProt P32214); assay: ASSAY (VIII) binding to the rat calcitonin receptor; settings: Table 7, read-out: rCTR bind IC50
T1 construct: expressed in transfected cells; host or cells: BHK tk'ts 13 (transient, FuGENE 6), membranes
T1 sequence (P32214 25-479 isoform P32214-2 limits assumed): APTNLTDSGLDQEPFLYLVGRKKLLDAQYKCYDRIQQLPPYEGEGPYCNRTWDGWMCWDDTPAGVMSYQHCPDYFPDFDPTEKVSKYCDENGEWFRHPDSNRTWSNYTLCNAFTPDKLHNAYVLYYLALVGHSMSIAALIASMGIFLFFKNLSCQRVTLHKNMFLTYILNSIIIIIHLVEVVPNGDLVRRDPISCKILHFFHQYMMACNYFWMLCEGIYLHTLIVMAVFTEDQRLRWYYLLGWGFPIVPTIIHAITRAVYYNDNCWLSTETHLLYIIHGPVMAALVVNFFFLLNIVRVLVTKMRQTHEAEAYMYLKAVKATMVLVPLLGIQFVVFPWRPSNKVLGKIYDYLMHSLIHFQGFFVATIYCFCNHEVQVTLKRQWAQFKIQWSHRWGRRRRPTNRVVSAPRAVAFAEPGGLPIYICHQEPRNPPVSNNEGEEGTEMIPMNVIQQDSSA
Outline: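 BHK tk′ts 13 cells, transient rat calcitonin receptor transfection; DMEM + 10% FBS; harvest ~48 h post-transfection; membrane prep.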

[2] = bistrispropane buffer, pH 6.5, read-out: Solubility pH 6.5 Concentration
[3] = bistrispropane buffer, pH 7.5, read-out: Solubility pH 7.5 Concentration
[4] = bistrispropane buffer, pH 6.0, read-out: Solubility pH 6.0 Concentration
[5] = bistrispropane buffer, pH 7.0, read-out: Solubility pH 7.0 Concentration
[6] = bistrispropane buffer, pH 8.0, read-out: Solubility pH 8.0 Concentration
[7] = glycylglycine buffer, pH 3.0, read-out: Solubility pH 3.0 Concentration
[8] = glycylglycine buffer, pH 4.0, read-out: Solubility pH 4.0 Concentration
[9] = glycylglycine buffer, pH 5.0, read-out: Solubility pH 5.0 Concentration

CC[C@H](C)[C@H](NC(=O)[C@H](C)NC(=O)CNC(=O)[C@H](Cc1ccccc1)NC(=O)[C@H](CC(N)=O)NC(=O)[C@@H]1CCCN1C(=O)[C@H](CO)NC(=O)[C@H](CO)NC(=O)[C@H](Cc1c[nH]cn1)NC(=O)[C@H](CCCNC(=N)N)NC(=O)[C@H](CC(C)C)NC(=O)[C@H](Cc1ccccc1)NC(=O)[C@H](Cc1c[nH]cn1)NC(=O)[C@H](C)NC(=O)[C@H](CC(C)C)NC(=O)[C@H](CCCNC(=N)N)NC(=O)[C@H](CCC(N)=O)NC(=O)[C@@H](NC(=O)[C@H](C)NC(=O)[C@@H]1CSSC[C@H](NC(=O)[C@@H](N)CCCCNC(=O)CC[C@H](NC(=O)CCCCCCCCCCCCCCCCCCC(=O)O)C(=O)O)C(=O)N[C@@H](CC(N)=O)C(=O)N[C@@H]([C@@H](C)O)C(=O)N[C@@H](C)C(=O)N[C@@H]([C@@H](C)O)C(=O)N1)[C@@H](C)O)C(=O)N1CCC[C@H]1C(=O)N[C@@H](CO)C(=O)N[C@@H](CO)C(=O)N[C@H](C(=O)N1CCC[C@H]1C(=O)N[C@H](C(=O)NCC(=O)N1CCC[C@H]1C(=O)N[C@@H](CC(N)=O)C(=O)N[C@H](C(=O)N[C@@H](Cc1ccc(O)cc1)C(N)=O)[C@@H](C)O)C(C)C)[C@@H](C)O [Example 116] (H-K([γGlu-C20 diacid])CNTATCATQRLAHFLRHSSPNFGAIPSSTPVGPNTY-NH2; disulfide 2-7)
solubility at 18 h [1, 2]: ≥ 200 µM
solubility at 18 h [1, 3]: ≥ 200 µM
solubility at 18 h [1, 4]: ≥ 200 µM
solubility at 18 h [1, 5]: ≥ 200 µM
solubility at 18 h [1, 6]: 180 µM (≈ 791 µg/mL)
solubility at 18 h [1, 7]: ≥ 200 µM
solubility at 18 h [1, 8]: ≥ 200 µM
solubility at 18 h [1, 9]: ≥ 200 µM
IC50 (rat calcitonin receptor): 9.05 nM

CC[C@H](C)[C@H](NC(=O)[C@H](C)NC(=O)CNC(=O)[C@H](Cc1ccccc1)NC(=O)[C@H](CC(N)=O)NC(=O)[C@@H]1CCCN1C(=O)[C@H](CO)NC(=O)[C@H](CO)NC(=O)[C@H](Cc1c[nH]cn1)NC(=O)[C@H](CCCNC(=N)N)NC(=O)[C@H](CC(C)C)NC(=O)[C@H](Cc1ccccc1)NC(=O)[C@H](CC(N)=O)NC(=O)[C@H](C)NC(=O)[C@H](CC(C)C)NC(=O)[C@H](CCCNC(=N)N)NC(=O)[C@H](CCC(N)=O)NC(=O)[C@@H](NC(=O)[C@H](C)NC(=O)[C@@H]1CSSC[C@H](NC(=O)[C@@H](N)CCCCNC(=O)CC[C@H](NC(=O)CC[C@H](NC(=O)CCCCCCCCCCCCCCCCCCC(=O)O)C(=O)O)C(=O)O)C(=O)N[C@@H](CC(N)=O)C(=O)N[C@@H]([C@@H](C)O)C(=O)N[C@@H](C)C(=O)N[C@@H]([C@@H](C)O)C(=O)N1)[C@@H](C)O)C(=O)N1CCC[C@H]1C(=O)N[C@@H](CO)C(=O)N[C@@H](CO)C(=O)N[C@H](C(=O)N1CCC[C@H]1C(=O)N[C@H](C(=O)NCC(=O)N1CCC[C@H]1C(=O)N[C@@H](CCCNC(=N)N)C(=O)N[C@H](C(=O)N[C@@H](Cc1ccc(O)cc1)C(N)=O)[C@@H](C)O)C(C)C)[C@@H](C)O [Example 119] (H-K([γGlu-γGlu-C20 diacid])CNTATCATQRLANFLRHSSPNFGAIPSSTPVGPRTY-NH2; disulfide 2-7)
solubility at 18 h [1, 2]: 174 µM (≈ 791 µg/mL)
solubility at 18 h [1, 3]: 112 µM (≈ 509 µg/mL)
solubility at 18 h [1, 4]: ≥ 200 µM
solubility at 18 h [1, 5]: 182 µM (≈ 827 µg/mL)
solubility at 18 h [1, 6]: 32 µM (≈ 145 µg/mL)
solubility at 18 h [1, 7]: 174 µM (≈ 791 µg/mL)
solubility at 18 h [1, 8]: ≥ 200 µM
solubility at 18 h [1, 9]: ≥ 200 µM
IC50 (rat calcitonin receptor): 52.4 nM

CC[C@H](C)[C@H](NC(=O)[C@H](C)NC(=O)CNC(=O)[C@H](Cc1ccccc1)NC(=O)[C@H](CC(N)=O)NC(=O)[C@@H]1CCCN1C(=O)[C@H](CO)NC(=O)[C@H](CO)NC(=O)[C@H](Cc1c[nH]cn1)NC(=O)[C@H](CCCNC(=N)N)NC(=O)[C@H](CC(C)C)NC(=O)[C@H](Cc1ccccc1)NC(=O)[C@H](CC(=O)O)NC(=O)[C@H](C)NC(=O)[C@H](CC(C)C)NC(=O)[C@H](CCCNC(=N)N)NC(=O)[C@H](CCC(N)=O)NC(=O)[C@@H](NC(=O)[C@H](C)NC(=O)[C@@H]1CSSC[C@H](NC(=O)[C@@H](N)CCCCNC(=O)CC[C@H](NC(=O)CCCCCCCCCCCCCCCCCCC(=O)O)C(=O)O)C(=O)N[C@@H](CC(N)=O)C(=O)N[C@@H]([C@@H](C)O)C(=O)N[C@@H](C)C(=O)N[C@@H]([C@@H](C)O)C(=O)N1)[C@@H](C)O)C(=O)N1CCC[C@H]1C(=O)N[C@@H](CO)C(=O)N[C@@H](CO)C(=O)N[C@H](C(=O)N[C@@H](CC(N)=O)C(=O)N[C@H](C(=O)NCC(=O)N1CCC[C@H]1C(=O)N[C@@H](CCC(=O)O)C(=O)N[C@H](C(=O)N[C@@H](Cc1ccc(O)cc1)C(N)=O)[C@@H](C)O)C(C)C)[C@@H](C)O [Example 123] (H-K([γGlu-C20 diacid])CNTATCATQRLADFLRHSSPNFGAIPSSTNVGPETY-NH2; disulfide 2-7; N-terminus assumed)
solubility at 18 h [1, 2]: ≥ 200 µM
solubility at 18 h [1, 3]: ≥ 200 µM
solubility at 18 h [1, 4]: ≥ 200 µM
solubility at 18 h [1, 5]: ≥ 200 µM
solubility at 18 h [1, 6]: ≥ 200 µM
solubility at 18 h [1, 7]: ≥ 200 µM
solubility at 18 h [1, 8]: ≥ 200 µM
solubility at 18 h [1, 9]: ≥ 200 µM
IC50 (rat calcitonin receptor): 18.6 nM

CC[C@H](C)[C@H](NC(=O)[C@H](C)NC(=O)CNC(=O)[C@H](Cc1ccccc1)NC(=O)[C@H](CC(N)=O)NC(=O)[C@@H]1CCCN1C(=O)[C@H](CO)NC(=O)[C@H](CO)NC(=O)[C@H](Cc1c[nH]cn1)NC(=O)[C@H](CCCNC(=N)N)NC(=O)[C@H](CC(C)C)NC(=O)[C@H](Cc1ccccc1)NC(=O)[C@H](CCC(=O)O)NC(=O)[C@H](C)NC(=O)[C@H](CC(C)C)NC(=O)[C@H](CCCNC(=N)N)NC(=O)[C@H](CCC(N)=O)NC(=O)[C@@H](NC(=O)[C@H](C)NC(=O)[C@@H]1CSSC[C@H](NC(=O)[C@@H](N)CCCCNC(=O)CC[C@H](NC(=O)CC[C@H](NC(=O)CCCCCCCCCCCCCCCCCCC(=O)O)C(=O)O)C(=O)O)C(=O)N[C@@H](CC(N)=O)C(=O)N[C@@H]([C@@H](C)O)C(=O)N[C@@H](C)C(=O)N[C@@H]([C@@H](C)O)C(=O)N1)[C@@H](C)O)C(=O)N1CCC[C@H]1C(=O)N[C@@H](CO)C(=O)N[C@@H](CO)C(=O)N[C@H](C(=O)N[C@@H](CC(N)=O)C(=O)N[C@H](C(=O)NCC(=O)N1CCC[C@H]1C(=O)N[C@@H](CCC(=O)O)C(=O)N[C@H](C(=O)N1CCC[C@H]1C(N)=O)[C@@H](C)O)C(C)C)[C@@H](C)O [Example 125] (H-K([γGlu-γGlu-C20 diacid])CNTATCATQRLAEFLRHSSPNFGAIPSSTNVGPETP-NH2; disulfide 2-7 (inferred); N-terminus assumed)
solubility at 18 h [1, 2]: ≥ 200 µM
solubility at 18 h [1, 3]: ≥ 200 µM
solubility at 18 h [1, 4]: ≥ 200 µM
solubility at 18 h [1, 5]: ≥ 200 µM
solubility at 18 h [1, 6]: ≥ 200 µM
solubility at 18 h [1, 7]: ≥ 200 µM
solubility at 18 h [1, 8]: ≥ 200 µM
solubility at 18 h [1, 9]: ≥ 200 µM
IC50 (rat calcitonin receptor): 1.61 nM

CC[C@H](C)[C@H](NC(=O)[C@H](C)NC(=O)CNC(=O)[C@H](Cc1ccccc1)NC(=O)[C@H](CC(N)=O)NC(=O)[C@@H]1CCCN1C(=O)[C@H](CO)NC(=O)[C@H](CO)NC(=O)[C@H](Cc1c[nH]cn1)NC(=O)[C@H](CCCNC(=N)N)NC(=O)[C@H](CC(C)C)NC(=O)[C@H](Cc1ccccc1)NC(=O)[C@H](CCC(=O)O)NC(=O)[C@H](C)NC(=O)[C@H](CC(C)C)NC(=O)[C@H](CCCNC(=N)N)NC(=O)[C@H](CCC(N)=O)NC(=O)[C@@H](NC(=O)[C@H](C)NC(=O)[C@@H]1CSSC[C@H](NC(=O)[C@@H](N)CCCCNC(=O)CC[C@H](NC(=O)CCCCCCCCCCCCCCCCCCC(=O)O)C(=O)O)C(=O)N[C@@H](CC(N)=O)C(=O)N[C@@H]([C@@H](C)O)C(=O)N[C@@H](C)C(=O)N[C@@H]([C@@H](C)O)C(=O)N1)[C@@H](C)O)C(=O)N1CCC[C@H]1C(=O)N[C@@H](CO)C(=O)N[C@@H](CO)C(=O)N[C@H](C(=O)N[C@@H](CC(N)=O)C(=O)N[C@H](C(=O)NCC(=O)N[C@@H](CO)C(=O)N[C@@H](Cc1c[nH]cn1)C(=O)N[C@H](C(=O)N[C@@H](Cc1ccc(O)cc1)C(N)=O)[C@@H](C)O)C(C)C)[C@@H](C)O [Example 128] (H-K([γGlu-C20 diacid])CNTATCATQRLAEFLRHSSPNFGAIPSSTNVGSHTY-NH2; disulfide 2-7 (inferred); N-terminus assumed)
solubility at 18 h [1, 2]: ≥ 200 µM
solubility at 18 h [1, 3]: ≥ 200 µM
solubility at 18 h [1, 4]: ≥ 200 µM
solubility at 18 h [1, 5]: ≥ 200 µM
solubility at 18 h [1, 6]: ≥ 200 µM
solubility at 18 h [1, 7]: ≥ 200 µM
solubility at 18 h [1, 8]: ≥ 200 µM
solubility at 18 h [1, 9]: ≥ 200 µM
IC50 (rat calcitonin receptor): 26.3 nM
